“Also recorded” adds a separate entry of the source.
What was measured:
DOT1L/KMT4 = biological target: T1, DOT1L/KMT4 (Homo sapiens, UniProt Q8TEK3); experiment: HotSpot KMT activity assay, DOT1L; assay type: biochemical
T1 construct: the human recombinant DOT1L (residues 1–416); N-terminal GST-tag; GST (N); purchased Reaction Biology Corporation
Method: (§1) Then, ^3H-SAM (final concentration 1 μM) was delivered into the reaction mixture to initiate the reaction. After incubation for 60 min at 30 °C, the reaction mixture was delivered to filter paper for detection (as assessed by scintillation). […] No inhibitor control (DMSO) was considered as showing 100% enzyme activity. Data were analyzed using Excel and GraphPad Prism 6.0 software (GraphPad Software Inc., San Diego, CA). Values obtained for each compound are mean ± SD determined for two separate experiments.

G9a/KMT1C = biological target: T2, G9a/KMT1C (Homo sapiens, UniProt Q96KQ7); experiment: HotSpot KMT activity assay, G9a; assay type: biochemical; conditions: read-out: % G9a residual activity
T2 construct: the human recombinant G9a (residues 913–1193, C-terminus); with an N-terminal His-tag; His (N); purchased Reaction Biology Corporation
T2 sequence (Q96KQ7 913-1193): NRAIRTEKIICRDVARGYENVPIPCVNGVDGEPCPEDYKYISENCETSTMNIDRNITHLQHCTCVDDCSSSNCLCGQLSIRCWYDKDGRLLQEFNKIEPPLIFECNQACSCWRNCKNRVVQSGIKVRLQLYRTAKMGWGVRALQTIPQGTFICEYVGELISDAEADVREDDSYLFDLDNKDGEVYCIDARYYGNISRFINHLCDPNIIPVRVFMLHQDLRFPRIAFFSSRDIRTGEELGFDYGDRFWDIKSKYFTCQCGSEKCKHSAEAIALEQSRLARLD
Method: as §1

[1] = system: SET-domain-containing enzymes; experiment: Selectivity against the panel of SET-domain-containing KMTs; assay type: biochemical, human; conditions: highest tested concentration 100 μM
Method: . […] After incubation for 60 min at 30 °C, the reaction mixture was delivered to filter paper for detection (as assessed by scintillation). […] Data were analyzed using Excel and GraphPad Prism 6.0 software (GraphPad Software Inc., San Diego, CA). Values obtained for each compound are mean ± SD determined for two separate experiments.

T1 sequence (Q8TEK3 1-416): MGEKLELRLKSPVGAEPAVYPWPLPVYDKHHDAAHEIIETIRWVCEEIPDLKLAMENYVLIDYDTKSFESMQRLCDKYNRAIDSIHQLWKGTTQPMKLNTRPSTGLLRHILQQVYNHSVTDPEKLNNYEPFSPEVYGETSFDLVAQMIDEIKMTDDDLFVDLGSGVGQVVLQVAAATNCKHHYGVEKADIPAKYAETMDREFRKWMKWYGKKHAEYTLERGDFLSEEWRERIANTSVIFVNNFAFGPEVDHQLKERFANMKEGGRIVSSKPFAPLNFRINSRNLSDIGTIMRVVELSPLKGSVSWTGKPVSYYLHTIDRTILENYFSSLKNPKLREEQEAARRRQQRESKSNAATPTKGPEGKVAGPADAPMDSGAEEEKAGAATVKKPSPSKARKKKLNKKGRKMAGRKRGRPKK

inhibition of DOT1L/KMT4 (in words) (DOT1L/KMT4; 10 μM): significantly inhibited
remaining activity at 10 µM (DOT1L/KMT4; 10 μM, read-out: % DOT1L residual activity): 11.2 ± 0.88%
remaining activity at 100 µM (DOT1L/KMT4; 100 μM, read-out: % DOT1L residual activity): 1.35 ± 0.17%
remaining activity at 10 µM (G9a/KMT1C; 10 μM): 111 ± 4.3%
remaining activity at 100 µM (G9a/KMT1C; 100 μM): 70.93 ± 0.31%
SMILES: COC(=O)c1cc(O)c2cc(NC(=O)NCCCNC(=N)NC[C@H]3O[C@@H](n4cnc5c(N)ncnc54)[C@H](O)[C@@H]3O)cc(C(F)(F)F)c2c1 [1j, Methyl 6-(3-(3-(3-(((2R,3S,4R,5R)-5-(6-Amino-9H-purin-9-yl)-3,4-dihydroxytetrahydrofuran-2-yl)methyl)guanidino)propyl)ureido)-4-hydroxy-8-(trifluoromethyl)-2-naphthoate]
inhibition of SET-domain-containing enzymes (in words) [1]: none of the SET-domain-containing enzymes was inhibited; also recorded: not inhibited

— PMC10578352, “Identification of a Protein Arginine Methyltransferase 7 (PRMT7)/Protein Arginine Methyltransferase 9 (PRMT9) Inhibitor” (Journal of Medicinal Chemistry, 2023)
